From US20190077774A1, “PEROXISOME PROLIFERATOR-ACTIVATED RECEPTOR AGONISTS” (City of Hope, priority 2017, published 2019)

Legend:
human PPARα = target: T1, human PPARα (Homo sapiens, UniProt Q07869); experiment: PPAR-GAL4 transactivation assay in transiently transfected CV-1 cells; format: cell-based; settings: PPAR-GAL4 chimeric receptor, CV-1 cells; read-out: EC50(nM) hPPARα
T1 construct: expressed in transfected cells; host or cells: CV-1 (monkey kidney) cells, transient transfection
T1 sequence (Q07869 159-468): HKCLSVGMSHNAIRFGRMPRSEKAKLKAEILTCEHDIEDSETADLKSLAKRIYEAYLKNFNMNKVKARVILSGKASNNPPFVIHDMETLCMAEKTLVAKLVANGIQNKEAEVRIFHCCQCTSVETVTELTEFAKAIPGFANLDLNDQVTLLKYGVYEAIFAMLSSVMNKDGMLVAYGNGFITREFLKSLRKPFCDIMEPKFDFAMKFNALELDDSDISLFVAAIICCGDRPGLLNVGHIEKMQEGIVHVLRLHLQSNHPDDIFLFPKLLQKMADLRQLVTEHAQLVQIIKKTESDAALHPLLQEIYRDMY
Experimental: (§1) To assess the functional transcriptional activity of these compounds, cell-based assays using chimeric receptor Gal4 DNA-binding domain (DBD)-NR ligand binding domain cotransfection assay (LBDs of PPARα, PPARγ, and PPARδ) were performed. As an initial screen to determine the PPARα activity and selectivity, all compounds were evaluated for in vitro potency and selectivity by transfection testing, using CV-1 cells transfected with human and mouse PPARs. MH100×4 is a luciferase reporter with four copies of a GAL4 UASG response element, where GAL-I refers to the ligand-binding domain of the indicated receptor fused to the C-terminus of the GAL4 DNA-binding domain. Assays were performed using a Biomek automated workstation in which the genes for the nuclear receptor, as well as a plasmid containing a response element upstream of a luciferase cDNA, are transfected into CV-1 cells. Compounds were evaluated for their ability to activate human and mouse PPARs at […] test concentrations. […] The transactivation activity of the series of compounds (DY121-132, 10a-g) toward PPARα was expressed as EC50, which is the concentration of the test compound that affords half-maximum activity, as summarized in Table 1.
Cell-based reporter gene assays Cell based transactivation assays were performed in CV 1 cells as described (Forman, et al.). PPARα activity was assayed with a GAL4 reporter construct and fusion proteins containing the ligand binding domains of human PPARα, human PPARγ and human PPARδ linked to the DNA binding domain of yeast GAL4. Reporter constructs (300 ng/10^5 cells) and cytomegalovirus-driven expression vectors (20-50 ng/10^5 cells) were added as indicated along with CMX-b-gal (500 ng/10^5 cells) as an internal control. Cells were transiently transfected by Lipofectamine as described. Cells were incubated with DNA complexed liposomes for 2 h and subsequently treated for approximately 45 h with phenol red free DMEM FBS containing the indicated compounds. After exposure to ligand, the cells were harvested and assayed for luciferase and β-galactosidase activity. All points were assayed in triplicate and varied by less than 15%. Each experiment was repeated three or more times with similar results. Fold activation is reported.
(§2) In vitro binding and transfection studies. As an initial screen to determine the PPARα, PPARγ, and PPARδ activity, all compounds were evaluated for in vitro potency and selectivity by transfection testing, using CV-1 cells transfected with human and mouse PPARs. MH100×4 is a luciferase reporter with four copies of a GAL4 USAG response element, where GAL-I refers to the ligand-binding domain of the indicated receptor fused to the C-terminus of the GAL4 DNA-binding domain. Assays were performed using a Biomek automated workstation in which the gene for the nuclear receptor, as well as a plasmid containing a response element upstream of a luciferase cDNA, are transfected into CV-1 cells. Compounds were evaluated for their ability to activate human PPARs at 1, 2.5, 3, and 5 uM test concentrations.
(§3) Compounds were screened for agonist activity towards PPAR-GAL4 chimeric receptors in transiently transfected CV-1 cells as described. EC50 is the concentration of test compound that gave 50% maximum efficacy.

mouse PPARα = target: T2, mouse PPARα (Mus musculus, UniProt P23204); experiment: as above; format: cell-based; settings: PPAR-GAL4 chimeric receptor, read-out: EC50(nM) mPPARα
T2 construct: expressed in transfected cells; host or cells: CV-1 (monkey kidney) cells, transient transfection
T2 sequence (P23204 159-468): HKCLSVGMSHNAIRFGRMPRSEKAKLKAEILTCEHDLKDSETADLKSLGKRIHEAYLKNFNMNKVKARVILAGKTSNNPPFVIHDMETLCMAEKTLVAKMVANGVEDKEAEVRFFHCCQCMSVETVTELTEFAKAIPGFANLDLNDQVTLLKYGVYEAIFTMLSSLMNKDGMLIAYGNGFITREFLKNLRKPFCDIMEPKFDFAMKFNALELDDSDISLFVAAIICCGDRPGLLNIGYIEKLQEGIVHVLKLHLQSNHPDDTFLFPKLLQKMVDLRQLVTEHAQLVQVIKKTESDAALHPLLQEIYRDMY
Experimental: as §1, §2, §3

C57Bl/6J female mice = experiment: Serum triglyceride and lipid effects in C57Bl/6J female mice; format: in vivo; settings: FIG. 7
PPARα = target: T3, PPARα (Homo sapiens, UniProt Q07869); experiment: PPRE-luc reporter assay in CV-1 cells co-transfected with PPARα and RXRα expression plasmids; format: cell-based; settings: luciferase reporter
T3 construct: expressed in transfected cells; host or cells: CV-1 (monkey kidney) cells
T3 sequence (Q07869 1-468): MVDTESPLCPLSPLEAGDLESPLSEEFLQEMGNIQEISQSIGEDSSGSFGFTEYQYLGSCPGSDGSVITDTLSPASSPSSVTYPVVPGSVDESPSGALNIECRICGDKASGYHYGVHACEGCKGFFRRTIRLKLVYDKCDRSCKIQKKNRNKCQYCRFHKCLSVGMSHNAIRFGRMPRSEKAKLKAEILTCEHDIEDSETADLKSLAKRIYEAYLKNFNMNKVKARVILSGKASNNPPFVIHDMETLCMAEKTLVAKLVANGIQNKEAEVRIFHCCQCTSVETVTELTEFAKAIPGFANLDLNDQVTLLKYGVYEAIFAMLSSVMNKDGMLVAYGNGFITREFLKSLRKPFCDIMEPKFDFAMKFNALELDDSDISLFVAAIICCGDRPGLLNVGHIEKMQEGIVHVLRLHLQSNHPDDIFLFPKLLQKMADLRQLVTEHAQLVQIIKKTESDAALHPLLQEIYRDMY
T3 sequence (P19793 1-462 partner): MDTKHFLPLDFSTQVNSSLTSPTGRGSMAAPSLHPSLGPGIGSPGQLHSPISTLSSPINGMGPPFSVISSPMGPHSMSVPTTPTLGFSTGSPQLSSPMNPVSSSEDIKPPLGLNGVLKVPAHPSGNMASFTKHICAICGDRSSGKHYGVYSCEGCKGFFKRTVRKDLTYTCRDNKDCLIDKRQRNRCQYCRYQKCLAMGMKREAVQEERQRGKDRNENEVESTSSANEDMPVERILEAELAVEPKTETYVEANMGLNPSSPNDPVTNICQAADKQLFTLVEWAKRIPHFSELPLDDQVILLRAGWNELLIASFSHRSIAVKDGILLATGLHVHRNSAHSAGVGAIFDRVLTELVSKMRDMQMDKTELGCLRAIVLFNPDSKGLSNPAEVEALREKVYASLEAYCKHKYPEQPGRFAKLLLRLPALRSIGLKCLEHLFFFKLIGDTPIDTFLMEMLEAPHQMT
Experimental: In brief, monkey kidney CV-1 cells were co-transfected with appropriate reporter constructs and expression vectors. The fold activation of the reporter construct by ligand was determined at several concentrations of selected compounds (FIG. 4).^20 To examine the effect of DY-compound on PPARα-mediated PPRE transcriptional activation, a PPRE-luc reporter assay was conducted using a PPRE-driven luciferase reporter-gene (PPRE-luc) plasmid and PPARα and RXRα gene expression plasmids in CV-1 cells.

SMILES | EC50 (human PPARα) [nM] | EC50 (mouse PPARα) [nM] | dose-response of triglyceride suppression (C57Bl/6J female mice) | PPARα activation / PPRE-luc activity (PPARα)
Cc1ccc(Cn2nc(CCCc3ccc(OC(C)(C)C(=O)O)cc3)n(Cc3ccccc3)c2=O)cc1 [10c, 2-(4-{3-[4-Benzyl-1-(4-methyl-benzyl)-5-oxo-4,5-dihydro-1H[1,2,4]triazol-3-yl]-propyl}-phenoxy)-2-methyl-propionic acid] | 1.5 | 20 | – | –
COc1cc(Cn2c(CCCc3ccc(OC(C)(C)C(=O)O)cc3)nn(Cc3ccc(C)cc3)c2=O)cc(OC)c1OC [10f, 2-(4-{3-[3,4,5-Trimethoxy-benzyl-1-(4-methyl-benzyl)-5-oxo-4,5-dihydro-1H[1,2,4]triazol-3-yl]-propyl}-phenoxy)-2-methyl-propionic acid] | 3 | 30 | Dose-response suppression | –
Cc1ccc(Cn2nc(CCCc3ccc(OC(C)(C)C(=O)O)cc3)n(Cc3ccc(F)cc3)c2=O)cc1 [10d, 2-(4-{3-[4-Fluoro-benzyl-1-(4-methyl-benzyl)-5-oxo-4,5-dihydro-1H[1,2,4]triazol-3-yl]-propyl}-phenoxy)-2-methyl-propionic acid] | 1.5 | 10 | – | –
COc1cccc(Cn2c(CCCc3ccc(OC(C)(C)C(=O)O)cc3)nn(Cc3ccc(C)cc3)c2=O)c1 [10b, 2-(4-{3-[4-(3-Methoxy-benzyl)-1-(4-methyl-benzyl)-5-oxo-4,5-dihydro-1H[1,2,4]triazol-3-yl]-propyl}-phenoxy)-2-methyl-propionic acid] | 2 | 20 | – | –
C=Cc1ccc(Cn2nc(CCCc3ccc(OC(C)(C)C(=O)O)cc3)n(Cc3ccc(C)cc3)c2=O)cc1 [10h] | 12 | 20 | – | –
Cc1ccc(Cn2nc(CCCc3ccc(OC(C)(C)C(=O)O)cc3)n(Cc3ccc(C)cc3)c2=O)cc1 [10e, 2-(4-{3-[4-Methyl-benzyl-1-(4-methyl-benzyl)-5-oxo-4,5-dihydro-1H[1,2,4]triazol-3-yl]-propyl}-phenoxy)-2-methyl-propionic acid] | 1 | 3 | – | highest PPARα activation
Cc1ccc(Cn2nc(CCCc3ccc(OC(C)(C)C(=O)O)cc3)n(Cc3ccccc3Cl)c2=O)cc1 [10g, 2-(4-{3-[2-Chloro-benzyl-1-(4-methyl-benzyl)-5-oxo-4,5-dihydro-11H[1,2,4]triazol-3-yl]-propyl}-phenoxy)-2-methyl-propionic acid] | 1 | 10 | Dose-response suppression | highest PPARα activation
